22 molecules from patent US20230150981A1, “N-HETEROARYLALKYL-2-(HETEROCYCLYL AND HETEROCYCLYLMETHYL) ACETAMIDE DERIVATIVES AS SSTR4 AGONISTS” (Takeda Pharmaceutical Compnay Limited, priority 2020, published 2023) can be followed below.

Assay [1] addresses T1, SSTR4 (Homo sapiens, UniProt P31391).
T1 construct: host or cells: CHO-K1
As to the kind of experiment: Inhibition of forskolin stimulated cAMP in CHO-K1 cells overexpressing SSTR4. The conditions noted are these: read-out: SSTR4 Activity pEC50 (converted). The class given is cell-based. The method in brief: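 CHO-K1 cells overexpressing SSTR4 treated 30 min at room temperature with compound in Krebs Ringer buffer containing 0.5% BSA, 300 μM IBMX and 350 nM forskolin. Intracellular cAMP measured by HTRF LANCE Ultra (665/615 nm); pEC50 values reported.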

The target in assay [2] is T1, SSTR4. Nature of the assay: SSTR4 I-125 somatostatin competition binding assay (CHO-K1 membranes). The following applies: competition with I-125 somatostatin, membranes from CHO-K1 overexpressing SSTR4; read-out: SSTR4 Binding pIC50 (converted). The method in brief: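 CHO-K1 membranes overexpressing SSTR4 (1 μg/well) were incubated 60 min at room temperature with compound and I-125 somatostatin (0.2 nM in the compound mix) in 25 mM HEPES pH 7.4, 10 mM MgCl2, 1 mM CaCl2, 0.5% BSA. Bound radioligand was collected on PEI-soaked filters and scintillation-counted, with results reported as pIC50.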

The next assay deals with T2, SSTR1 (Homo sapiens, UniProt P30872).
T2 construct: purchased Perkin Elmer ES-520-M400UA; host or cells: CHO-K1 membranes
T2 sequence (P30872 whole entry): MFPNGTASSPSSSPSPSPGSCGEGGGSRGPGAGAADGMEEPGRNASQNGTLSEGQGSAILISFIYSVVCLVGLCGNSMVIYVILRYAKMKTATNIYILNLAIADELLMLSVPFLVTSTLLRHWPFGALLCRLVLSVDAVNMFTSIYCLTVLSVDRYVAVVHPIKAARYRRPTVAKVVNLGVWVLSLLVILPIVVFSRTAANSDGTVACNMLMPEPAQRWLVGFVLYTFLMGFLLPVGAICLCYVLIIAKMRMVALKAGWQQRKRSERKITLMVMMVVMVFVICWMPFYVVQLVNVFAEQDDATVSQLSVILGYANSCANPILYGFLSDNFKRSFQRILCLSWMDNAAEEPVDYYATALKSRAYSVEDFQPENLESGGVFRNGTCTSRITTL
As to the kind of experiment: SSTR1 I-125 somatostatin competition binding assay for selectivity versus SSTR1 (CHO-K1 membranes). The following applies: competition with I-125 somatostatin, membranes from CHO-K1 overexpressing SSTR1; read-out: SSTR1 Binding pIC50 (converted). The method in brief:
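Competition binding used 10 μg CHO-K1 SSTR1 membranes and I-125 somatostatin, 0.4 nM in the compound mix before membranes were added. Buffer was 25 mM HEPES pH 7.4, 10 mM MgCl2, 1 mM CaCl2, 0.5% BSA. After 60 min at room temperature, bound tracer was filtered onto PEI-soaked filters and counted by scintillation; values are pIC50.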

Where only a bound is given, the exact number is not on record here.

T1 sequence (P31391 whole entry): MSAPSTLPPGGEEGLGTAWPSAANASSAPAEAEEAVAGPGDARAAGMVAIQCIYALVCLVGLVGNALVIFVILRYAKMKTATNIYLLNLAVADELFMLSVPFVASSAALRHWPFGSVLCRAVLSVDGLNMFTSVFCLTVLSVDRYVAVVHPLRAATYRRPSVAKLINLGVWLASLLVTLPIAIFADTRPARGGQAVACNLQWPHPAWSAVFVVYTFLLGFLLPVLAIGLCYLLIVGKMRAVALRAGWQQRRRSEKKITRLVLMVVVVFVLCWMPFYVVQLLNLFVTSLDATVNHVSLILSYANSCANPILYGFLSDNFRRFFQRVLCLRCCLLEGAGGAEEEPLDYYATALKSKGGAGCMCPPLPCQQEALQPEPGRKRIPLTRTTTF

Regarding `CC(CN1CCCC1)C(=O)NC(C)(C)c1ccccc1Cl` (stereo not drawn) [Example 135, N-(2-(2-chlorophenyl)propan-2-yl)-2-methyl-3-(pyrrolidin-1-yl)propanamide], at SSTR4 [1], the EC50 is 10 nM. The IC50 on SSTR4 [2] is 158 nM; at SSTR1, 15800 nM.

On to `CN1CCC[C@H]1CC(=O)NC(C)(C)c1ccccc1F` [Example 160, (S)-N-(2-(2-fluorophenyl)propan-2-yl)-2-(1-methylpyrrolidin-2-yl)acetamide], for which the EC50 at SSTR4 [1] is 158 nM. The values for the IC50 at SSTR4 [2] and at SSTR1 were 1000 nM and over 50100 nM, respectively.

With `Cc1cccc(C(C)(C)NC(=O)CCN2CCC2)c1Cl` [Example 161, 3-(azetidin-1-yl)-N-(2-(2-chloro-3-methylphenyl)propan-2-yl)propanamide], the EC50 on SSTR4 [1] was 3.98 nM. Besides, the IC50 at SSTR4 [2] was 50.1 nM; at SSTR1 it was 6310 nM.

With `Cc1cccc(C(C)(C)NC(=O)CCN2CCC2)c1` [Example 162, 3-(azetidin-1-yl)-N-(2-(m-tolyl)propan-2-yl)propanamide], the EC50 on SSTR4 [1] was 7.94 nM. Moreover, the IC50 on SSTR4 [2] is 79.4 nM; at SSTR1, 25100 nM.

`CC(C)(NC(=O)CCN1CCC1)c1cccc(F)c1` [Example 163, 3-(azetidin-1-yl)-N-(2-(3-fluorophenyl)propan-2-yl)propanamide]: the EC50 on SSTR4 [1] was 25.1 nM. Moreover, the IC50 on SSTR4 [2] was 398 nM; at SSTR1, over 50100 nM.

On to `CC(C)(NC(=O)CCN1CCC1)c1cccc(Cl)c1` [Example 164, 3-(azetidin-1-yl)-N-(2-(3-chlorophenyl)propan-2-yl)propanamide], for which the EC50 on SSTR4 [1] was 12.6 nM. The IC50 at SSTR4 [2] was 39.8 nM; on SSTR1, 31600 nM.

With `CC(C)(NC(=O)CCN1CCC1)c1ccc(Cl)cc1` [Example 165, 3-(azetidin-1-yl)-N-(2-(4-chlorophenyl)propan-2-yl)propanamide], at SSTR4 [1], the EC50 is 10 nM. The IC50 is 79.4 nM on SSTR4 [2] and 25100 nM at SSTR1.

Regarding `Cc1c(F)cccc1C(C)(C)NC(=O)CCN1CCC1` [Example 166, 3-(azetidin-1-yl)-N-(2-(3-fluoro-2-methylphenyl)propan-2-yl)propanamide], the EC50 at SSTR4 [1] was 12.6 nM. Besides, the IC50 at SSTR4 [2] is 50.1 nM; at SSTR1 it was 39800 nM.

`O=C(CCN1CCC1)NC(c1cc(F)ccc1F)C(F)F` (stereo not drawn) [Example 167, 3-(azetidin-1-yl)-N-(1-(2,5-difluorophenyl)-2,2-difluoroethyl)propanamide]: the EC50 at SSTR4 [1] was 25.1 nM. For the same molecule, the figures for the IC50 on SSTR4 [2] and on SSTR1 were 251 nM and over 50100 nM, respectively.

`COc1c(F)cccc1C(C)(C)NC(=O)C(C)CN1CCC1` (stereo not drawn) [Example 170, 3-(azetidin-1-yl)-N-(2-(3-fluoro-2-methoxyphenyl)propan-2-yl)-2-methylpropanamide]: on SSTR4 [1], the EC50 was 0.794 nM. Also, the IC50 was 25.1 nM on SSTR4 [2] and 5010 nM on SSTR1.

Consider `Cc1ccc(C(CF)NC(=O)CCN2CCC2)cc1` (stereo not drawn) [Example 173, 3-(azetidin-1-yl)-N-(2-fluoro-1-(p-tolyl)ethyl)propanamide], for which, at SSTR4 [1], the EC50 is 20 nM. The values for the IC50 on SSTR4 [2] and at SSTR1 were 200 nM and over 50100 nM, respectively.

As for `CC(C)[C@@H](CN1CCC1)C(=O)N[C@@H](c1ccccc1)C(F)F` [Example 178, (S)-2-(azetidin-1-ylmethyl)-N-((S)-2,2-difluoro-1-phenylethyl)-3-methylbutanamide], at SSTR4 [1], the EC50 was 39.8 nM. The values for the IC50 on SSTR4 [2] and at SSTR1 were 39.8 nM and 6310 nM, respectively.

On to `CC(C)[C@@H](CN1CCC1)C(=O)N[C@H](c1ccccc1)C(F)F` [Example 179, (S)-2-(azetidin-1-ylmethyl)-N-((R)-2,2-difluoro-1-phenylethyl)-3-methylbutanamide], for which the EC50 at SSTR4 [1] was 0.2 nM. The results for the IC50 at SSTR4 [2] and at SSTR1 were 2 nM and 251 nM, respectively.

Regarding `CC[C@@H](CN1CCC1)C(=O)N[C@H](c1ccccc1)C(F)F` [Example 180, (S)-2-(azetidin-1-ylmethyl)-N-((R)-2,2-difluoro-1-phenylethyl)butanamide], the EC50 at SSTR4 [1] was 0.126 nM. Further, the IC50 at SSTR4 [2] was 3.16 nM; at SSTR1, 631 nM.

For the molecule `COc1ccccc1[C@@H](NC(=O)[C@H](CN1CCC1)C(C)C)C(F)F` [Example 188, (S)-2-(azetidin-1-ylmethyl)-N-((R)-2,2-difluoro-1-(2-methoxyphenyl)ethyl)-3-methylbutanamide], the EC50 on SSTR4 [1] was 0.501 nM. In addition, the IC50 on SSTR4 [2] is 2 nM; at SSTR1, 126 nM.

`CC[C@@H](CN1CCC1)C(=O)N[C@H](c1ccccc1OC)C(F)F` [Example 189, (S)-2-(azetidin-1-ylmethyl)-N-((R)-2,2-difluoro-1-(2-methoxyphenyl)ethyl)butanamide]: the EC50 on SSTR4 [1] is 1 nM. Moreover, the figures for the IC50 at SSTR4 [2] and at SSTR1 were 7.94 nM and 631 nM, respectively.

Turning to `CC(C)[C@@H](CN1CCC1)C(=O)N[C@H](c1cccc(F)c1)C(F)F` [Example 194, (S)-2-(azetidin-1-ylmethyl)-N-((R)-2,2-difluoro-1-(3-fluorophenyl)ethyl)-3-methylbutanamide], at SSTR4 [1], the EC50 was 0.794 nM. The values for the IC50 on SSTR4 [2] and on SSTR1 were 2.51 nM and 631 nM, respectively.

In the case of `CC[C@@H](CN1CCC1)C(=O)N[C@H](c1cccc(F)c1)C(F)F` [Example 195, (S)-2-(azetidin-1-ylmethyl)-N-((R)-2,2-difluoro-1-(3-fluorophenyl)ethyl)butanamide], the EC50 on SSTR4 [1] was 2 nM. Also, the figures for the IC50 at SSTR4 [2] and on SSTR1 were 2.51 nM and 1000 nM, respectively.

For the molecule `CC(C)[C@@H](CN1CCC1)C(=O)N[C@H](c1ccc(F)cc1)C(F)F` [Example 196, (S)-2-(azetidin-1-ylmethyl)-N-((R)-2,2-difluoro-1-(4-fluorophenyl)ethyl)-3-methylbutanamide], the EC50 at SSTR4 [1] was 0.2 nM. For the same molecule, the figures for the IC50 on SSTR4 [2] and at SSTR1 were 3.16 nM and 501 nM, respectively.

Regarding `O=C(CCN1CCC1)N[C@H](c1cccc(Cl)c1)C(F)F` [Example 202, (R)-3-(azetidin-1-yl)-N-(1-(3-chlorophenyl)-2,2-difluoroethyl)propanamide], the EC50 at SSTR4 [1] was 0.794 nM. Besides, the IC50 was 20 nM at SSTR4 [2] and 6310 nM at SSTR1.

On to `CN1CCCC1CC(=O)NC(C)(C)c1nccc2ccccc12` (stereo not drawn) [Example 203, N-(2-(isoquinolin-1-yl)propan-2-yl)-2-(1-methylpyrrolidin-2-yl)acetamide], for which, on SSTR4 [1], the EC50 is 3.98 nM. In addition, the IC50 at SSTR4 [2] was 158 nM; on SSTR1 it was 3980 nM.

With `CC[C@@H](CN1CCC1)C(=O)N[C@H](c1ccc(F)cc1)C(F)F` [Example 204, (S)-2-(azetidin-1-ylmethyl)-N-((R)-2,2-difluoro-1-(4-fluorophenyl)ethyl)butanamide], the EC50 at SSTR4 [1] is 0.1 nM. In addition, the IC50 is 3.16 nM at SSTR4 [2] and 631 nM on SSTR1.
